Key:
[1] = target: T1, Cbl-b (Homo sapiens, UniProt Q13191); test: Cbl-b inhibition assay (Cbl-b activity assay, FRET, Biological Example 1; 100 mM NaCl, 60 nM Src kinase); assay type: biochemical; conditions: upper bound stated in text lists; read-out: IC50 values in the Cbl-b inhibition assay of Biological Example 1
Outline: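 Here, the E2 UbcH5B, irreversibly linked to Bodipy-fluorescein ubiquitin, binds Cbl-b once Src kinase phosphorylates it; Cbl-b carries an N-terminal biotinylated Avi-tag captured by streptavidin-terbium. An absent FRET signal indicates inhibition.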

[2] = target: T1, Cbl-b; test: Cbl-b activity assay (Cbl-b inhibition assay), TR-FRET of Cbl-b interaction with UbcH5B-Ub; assay type: biochemical
Outline: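 UbcH5B (C85K) conjugated to N-terminally Bodipy-Fluorescein-labeled ubiquitin served as the fluorescent partner. After compound preincubation, Src kinase (60 nM) with 1 mM ATP and 5 mM MgCl2 (final) was added for 1.5 h, followed by a further 1 h incubation. Some values were obtained with 50 mM NaCl and 30 nM Src.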

[3] = target: Cbl-b (residues 36-427) (Homo sapiens, UniProt Q13191); test: Cbl-b binding assay (SPR, Biacore T200); conditions: 20° C., 1:1 binding model
Outline: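 Steps: capture protein on NeutrAvidin surface; inject compound dilutions (8 or 10 points from 100 or 50 μM) 50 s; allow 90-180 s dissociation; regenerate 20 s with 0.3 M NaCl. Runs at 20° C in HEPES pH 7.5/100 mM NaCl/2% DMSO; 1:1 fitting.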

[4] = assay buffer with 100 mM NaCl, 60 nM Src kinase, read-out: Cbl-b activity IC50

T1 sequence (Q13191 36-427): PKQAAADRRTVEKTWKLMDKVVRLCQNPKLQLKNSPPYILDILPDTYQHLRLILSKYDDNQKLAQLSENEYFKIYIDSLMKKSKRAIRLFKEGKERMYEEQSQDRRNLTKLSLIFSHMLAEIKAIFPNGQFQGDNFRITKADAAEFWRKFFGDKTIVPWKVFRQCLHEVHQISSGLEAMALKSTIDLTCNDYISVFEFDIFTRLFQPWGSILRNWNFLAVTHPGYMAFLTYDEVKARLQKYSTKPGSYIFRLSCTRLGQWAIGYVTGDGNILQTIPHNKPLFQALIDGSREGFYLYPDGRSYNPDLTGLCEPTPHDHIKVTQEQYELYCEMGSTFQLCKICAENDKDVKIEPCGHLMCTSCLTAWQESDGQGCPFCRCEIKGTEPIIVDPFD
Sequence of Cbl-b (residues 36-427) (Q13191 36-427): as above

SMILES	IC50 [1]	IC50 [2, 4]	Kd [3]	IC50 ([2]; * assay buffer containing 50 mM NaCl instead of 100 mM NaCl and 30 nM Src kinase instead of 60 nM, read-out: Cbl-b activity IC50 (μM)*)
C[C@H](Sc1nncn1C)c1cccc(NC(=O)c2nc(C(F)(F)F)cs2)c1 [Compound 74, N-[3-[(1 S)-1-[(4-methyl-1,2,4-triazol-3-yl)sulfanyl]ethyl]phenyl]-4-(trifluoromethyl)thiazole-2-carboxamide]	≤ 1 µM	0.301 to 1 µM	1 to 3 µM	–
C[C@H](Sc1nncn1C)c1cccc(NC(=O)c2cccc(C(F)(F)F)c2F)c1 [Compound 42, (S)-2-Fluoro-N-(3-(1-((4-methyl-4H-1,2,4-triazol-3-yl)thio)ethyl)phenyl)-3-(trifluoromethyl)benzamide]	≤ 1 µM	0.301 to 1 µM	0.301 to 1 µM	–
C[C@H](Sc1nncn1C)c1ccc(F)c(NC(=O)c2ccc3ccccc3n2)c1 [Compound 96a, (S)-N-(2-fluoro-5-(1-((4-methyl-4H-1,2,4-triazol-3-yl)thio)ethyl)phenyl)quinoline-2-carboxamide]	≤ 10 µM	1 to 3 µM	1 to 3 µM	–
C[C@H](Sc1nncn1C)c1cccc(NC(=O)c2cc(CCO)ccn2)c1 [Compound 46, (S)-4-(2-Hydroxyethyl)-N-(3-(1-((4-methyl-4H-1,2,4-triazol-3-yl)thio)ethyl)phenyl)picolinamide]	≤ 10 µM	1 to 3 µM	3 to 10 µM	–
C[C@H](Sc1nncn1C)c1ccnc(NC(=O)c2cccc(C(C)(F)F)n2)c1 [Compound 110, (S)-6-(1,1-difluoroethyl)-V-(4-(1-((4-methyl-4H-1,2,4-triazol-3-yl)thio)ethyl)pyridin-2-yl)picolinamide]	≤ 1 µM	0.301 to 1 µM	3 to 10 µM	–
C[C@@H](Sc1nncn1C)c1cccc(N2Cc3c(cccc3C(F)(F)F)C2=O)c1 [Compound 166b, (R)-2-(3-(1-(4-methyl-4H-1,2,4-triazol-3-ylthio)ethyl)phenyl)-4-(trifluoromethyl)isoindolin-1-one]	≤ 10 µM	1 to 3 µM	3 to 10 µM	–
COc1ccc(C(C)Sc2nncn2C)cc1NC(=O)c1ccc2ccccc2n1 (stereo not shown) [Compound 97, N-(2-methoxy-5-(1-((4-methyl-4H-1,2,4-triazol-3-yl)thio)ethyl)phenyl)quinoline-2-carboxamide]	≤ 10 µM	1 to 3 µM	3 to 10 µM	1 to 3 µM
C[C@H](Sc1nncn1C)c1cccc(NC(=O)c2cccc(CF)n2)c1 [Compound 87, 6-(fluoromethyl)-N-[3-[(1S)-1-[(4-methyl-1,2,4-triazol-3-yl)sulfanyl]ethyl]phenyl]pyridine-2-carboxamide]	≤ 10 µM	1 to 3 µM	1 to 3 µM	–
Cc1cc(C(=O)Nc2cccc([C@H](C)Sc3nncn3C)c2)[nH]c(=O)c1 [Compound 50, (S)-4-Methyl-N-(3-(1-((4-methyl-4H-1,2,4-triazol-3-yl)thio)ethyl)phenyl)-6-oxo-1,6-dihydropyridine-2-carboxamide]	≤ 10 µM	3 to 10 µM	> 10 µM	–
CN[C@H]1CCN(C(=O)c2ccnc(C(=O)Nc3cccc([C@H](C)Cc4nncn4C)c3)c2)C1 [Compound 250, N-[3-[(2R)-1-(4-methyl-4H-1,2,4-triazol-3-yl)propan-2-yl]phenyl]-4-[(3S)-3-(methylamino)pyrrolidine-1-carbonyl]pyridine-2-carboxamide]	≤ 10 µM	1 to 3 µM	1 to 3 µM	–
C[C@H](Cc1nncn1C)c1cccc(NC(=O)c2cc(C(=O)N3CC[C@H](O)C3)ccc2F)c1 [Compound 254, 2-fluoro-5-((S)-3-hydroxypyrrolidine-1-carbonyl)-N-(3-((R)-1-(4-methyl-4H-1,2,4-triazol-3-yl)propan-2-yl)phenyl)benzamide]	≤ 10 µM	1 to 3 µM	3 to 10 µM	–
C[C@H](Cc1nncn1C)c1cccc(N2Cc3c(cc(C(=O)O)cc3C(F)(F)F)C2=O)c1 [Compound 273, (R)-2-(3-(1-(4-methyl-4H-1,2,4-triazol-3-yl)propan-2-yl)phenyl)-3-oxo-7-(trifluoromethyl)isoindoline-5-carboxylic acid]	≤ 10 µM	1 to 3 µM	3 to 10 µM	–
C[C@@H](Cc1nncn1C)c1cccc(NC(=O)c2cc(S(C)(=O)=O)cc(C3CC3)n2)c1 [Compound 198b]	≤ 10 µM	3 to 10 µM	3 to 10 µM	–
C[C@H](Sc1nncn1C)c1ccnc(NC(=O)c2cccc(C3CC3)n2)c1 [Compound 117, 6-cyclopropyl-N-[4-[(1S)-1-[(4-methyl-1,2,4-triazol-3-yl)sulfanyl]ethyl]-2-pyridyl]pyridine-2-carboxamide]	≤ 10 µM	1 to 3 µM	3 to 10 µM	–
C[C@H](Sc1nncn1C)c1cccc(NC(=O)c2cc(C(=O)N3CCC[C@@H](O)C3)ccn2)c1 [Compound 149, 4-((R)-3-hydroxypiperidine-1-carbonyl)-N-(3-((S)-1-((4-methyl-4H-1,2,4-triazol-3-yl)thio)ethyl)phenyl)picolinamide]	≤ 10 µM	3 to 10 µM	> 10 µM	–
C[C@H](Cc1nncn1C)c1cccc(NC(=O)c2cc(C(=O)N3CCC(O)C3(C)C)ccn2)c1 (stereo partly drawn) [Compound 231, 4-(3-hydroxy-2,2-dimethylpyrrolidine-1-carbonyl)-N-(3-((R)-1-(4-methyl-4H-1,2,4-triazol-3-yl)propan-2-yl)phenyl)picolinamide]	≤ 10 µM	1 to 3 µM	0.1 to 0.3 µM	–
C[C@H](Cc1nncn1C)c1cccc(NC(=O)c2cc(C(=O)N3C[C@@H](F)[C@@H](O)C3)ccn2)c1 [Compound 246, cis-4-(3-fluoro-4-hydroxypyrrolidine-1-carbonyl)-N-(3-((R)-1-(4-methyl-4H-1,2,4-triazol-3-yl)propan-2-yl)phenyl)picolinamide]	≤ 10 µM	1 to 3 µM	1 to 3 µM	–
Cc1nc(C(=O)Nc2cccc([C@H](C)Sc3nncn3C)c2)cs1 [Compound 41, (S)-2-Methyl-N-(3-(1-((4-methyl-4H-1,2,4-triazol-3-yl)thio)ethyl)phenyl)thiazole-4-carboxamide]	≤ 10 µM	1 to 3 µM	1 to 3 µM	–
COc1nc(C(=O)Nc2cc([C@H](C)Sc3nncn3C)ccn2)ccc1Cl [Compound 125, (S)-5-chloro-6-methoxy-N-(4-(1-((4-methyl-4H-1,2,4-triazol-3-yl)thio)ethyl)pyridin-2-yl)picolinamide]	≤ 10 µM	1 to 3 µM	3 to 10 µM	–
C[C@@H](Sc1nncn1C)c1ccc(F)c(NC(=O)c2cccc(C(F)(F)F)n2)c1 [Compound 95b, (R)-N-(2-fluoro-5-(1-((4-methyl-4H-1,2,4-triazol-3-yl)thio)ethyl)phenyl)-6-(trifluoromethyl)picolinamide]	≤ 10 µM	3 to 10 µM	> 10 µM	–
C[C@H](Cc1nncn1C)c1cccc(NC(=O)c2cc(C(=O)N3C[C@@H](O)C[C@@H]3C)ccn2)c1 [Compound 223, 4-((2S,4S)-4-hydroxy-2-methylpyrrolidine-1-carbonyl)-N-(3-((R)-1-(4-methyl-4H-1,2,4-triazol-3-yl)propan-2-yl)phenyl)picolinamide]	≤ 10 µM	3 to 10 µM	3 to 10 µM	–
Cn1cnnc1C(F)(F)C(C)(O)c1cccc(N2Cc3c(cccc3C(F)(F)F)C2=O)c1 (stereo not shown) [Compound 295, 2-(3-(1,1-difluoro-2-hydroxy-1-(4-methyl-4H-1,2,4-triazol-3-yl)propan-2-yl)phenyl)-4-(trifluoromethyl)isoindolin-1-one]	≤ 10 µM	3 to 10 µM	1 to 3 µM	–
CCc1cccc(C(=O)Nc2cc([C@H](C)Sc3nncn3C)ccn2)n1 [Compound 123, (S)-6-ethyl-N-(4-(1-((4-methyl-4H-1,2,4-triazol-3-yl)thio)ethyl)pyridin-2-yl)picolinamide]	≤ 10 µM	1 to 3 µM	3 to 10 µM	–
C[C@H](Sc1nncn1C)c1cccc(NC(=O)c2cc(NS(=O)(=O)CCO)ccn2)c1 [Compound 86, 4-(2-hydroxyethylsulfonylamino)-N-[3-[(1S)-1-[(4-methyl-1,2,4-triazol-3-yl)sulfanyl]ethyl]phenyl]pyridine-2-carboxamide]	≤ 10 µM	3 to 10 µM	> 10 µM	–

Reference: patent US20220324835A1 (Nurix Therapeutics, Inc., priority 2018, published 2022)
